Source: patent US4690891A, “Method and the microorganism and enzyme used therein for degrading the xanthan molecule” (Exxon Research and Engineering Company, priority 1985, dated 1987)
Like-named read-outs stand apart in the source and are kept apart here.

Tests used:
culture B-15992 [1] = assay: Effect of chemicals and biocide on growth of culture B-15992 in xanthan broth (viscosity loss); type: cell-based, Bacillus sp. / Flavobacterium sp. mixed culture NRRL B-15992
Experimental: Chemicals and biocides, including those used in enhanced oil recovery operations were studied for their effect on the growth of culture B-15992 and on the activity of xanthan-degrading enzyme(s). Both aerobic and anaerobic conditions were tested. In order to simulate the conditions used in EOR field operation, xanthan was produced in the laboratory by growing Xanthomonas campestris according to the published procedure, Jeanes, A., et al, (1976), "Polysaccharide (xanthan) of Xanthomonas campestris NRRL B-1459: Procedures for culture maintenance and polysaccharide production, purification and analysis". Agricultural Research Service, U.S. Department of Agriculture AR-NC-51. After centrifugation, the culture broth was autoclaved and was diluted with brine to about 300 cps viscosity. A cell suspension of culture B-15992 obtained from colonies grown on agar plates was used as the innoculum. Growth of B-15992 was followed by monitoring decreases of viscosity of the culture broth and by microscopic observation.

xanthan depolymerase [2] = assay: Inhibition of xanthan depolymerase activity, assayed viscosimetrically; type: biochemical, Bacillus sp. (culture NRRL B-15992)
Experimental: (§1) A novel xanthan depolymerase was purified from the culture supernatant and examined for its effect on degrading xanthan. In the following, enzyme assays were conducted with either viscosity or reducing sugar measurements by incubating a 1.25 ml xanthan stock solution and a small amount of enzyme(s) at 25° C. Xanthan stock solution was prepared by dissolving 0.188% xanthan, 0.4 mM MgSO4, and 0.03 mM MnSO4 in 0.05 M sodium acetate buffer pH 5.4. At certain time intervals samples were taken for either viscosity or reducing sugar assay. Viscosity was measured at 25° C. (using a Contraves low-shear 30 rheometer, Middlesex, U.K. at a shear rate of 1.3 sec.^-1 1). The rheometer was equipped with a refrigerated circulating bath (Neslab Endoccal bath, Portsmouth, N.H.). Reducing sugars, calculated as glucose, were determined by the method of Somogyi, M., (1945), "A New Reagent for the Determination of Sugars", J. Biol. Chem. 160, 61-69. […] The changes in viscosity and reducing sugars between two time intervals (1.0 min to 2.0 min for Δ cps, 0.5 min to 1.5 min for Δ reducing sugars) were measured. Enzyme activity (in units) was expressed as Δ cps/min (depolymerase) or Δμmoles reducing sugar group released (as glucose) per min. (for both endo and exoglucanases). Specific enzyme activity was expressed as units per mg of protein.
Various chemicals including thiols, metal ions and metal-chelating agents were tested for inhibition of xanthan depolymerase activity. These chemicals (at 1 mM concentration unless otherwise stated) were added into xanthan stock solutions. Enzyme activity was assayed viscosimetrically.

culture B-15992 [3] = test system: culture B-15992
Text: The stable mixed culture is hereinafter designated NRRL B-15992.

xanthan depolymerase [4] = assay: Substrate specificity of xanthan depolymerase; type: biochemical, Bacillus sp. (culture NRRL B-15992); details: forty μg of enzyme per assay
Experimental: as §1

N#CC(Br)(Br)C(N)=O [DBNPA, 2,2-dibromo-3-nitrilopropionamide]
prevention of growth of B-15992 (culture B-15992 [1]; 10 ppm): not effective in preventing the growth of B-15992
time until solution viscosity was lost (culture B-15992 [1]; 10 ppm, aerobic): ≤ 5 days
Viscosity (cps after days incubation) Aerobic (culture B-15992 [1]; 10 ppm, aerobic, 5 days): 1.5 cps
Viscosity (cps after days incubation) Anaerobic (culture B-15992 [1]; 10 ppm): 300 cps

chlorophenol
inhibition of xanthan depolymerase activity (xanthan depolymerase [2]; 100 ppm): not inhibited

[Na+].[OH-] [NaOH]
inhibition of xanthan depolymerase activity (xanthan depolymerase [2]; 5.0 mM (Trizma ph 8.5)): not inhibited

[K+].[OH-] [KOH]
inhibition of xanthan depolymerase activity (xanthan depolymerase [2]; 5.0 mM (Trizma ph 8.5)): not inhibited

N.N.O=S(=O)(O)O [ammonium sulfate]
inhibition of xanthan depolymerase activity (xanthan depolymerase [2]): not inhibited

C=O [HCHO, formaldehyde]
inhibition of xanthan depolymerase activity (xanthan depolymerase [2]): not inhibited
time for B-15992 to degrade the xanthan solution (culture B-15992 [1]; 25 ppm, aerobic): 9 days
Viscosity (cps after days incubation) Aerobic (culture B-15992 [1]; 25 ppm, aerobic, 9 days, about 300 cps at start): 1.5 cps
Viscosity (cps after days incubation) Anaerobic (culture B-15992 [1]; 25 ppm): 300 cps
prevention of growth of B-15992 (culture B-15992 [1]; 25 ppm, compared with 10 ppm DBNPA): somewhat more effective
Viscosity (cps after days incubation) Aerobic (culture B-15992 [1]; 50 ppm, aerobic): 300 cps
Viscosity (cps after days incubation) Anaerobic (culture B-15992 [1]; 50 ppm): 300 cps
changes in solution viscosity or cell growth (culture B-15992 [1]; 50 ppm, during 30 days of incubation): no changes in solution viscosity or cell growth

CCN1C(=O)C=CC1=O [N--ethylmaleimide]
% Inhibition (xanthan depolymerase [2]; inhibitor 1 mM): 40%

Oc1cccc2cccnc12 [8-hydroxyquinoline]
% Inhibition (xanthan depolymerase [2]): 0%

O=C(O)CI [iodoacetic acid]
% Inhibition (xanthan depolymerase [2]): 0%

O=C(CCl)c1ccc(O)c(O)c1 [α-chloro-3,4-dihydroxyacetophenone]
inhibition of xanthan depolymerase activity (xanthan depolymerase [2]; 100 ppm): not inhibited

[N-]=[N+]=[N-] [sodium azide]
% Inhibition (xanthan depolymerase [2]; inhibitor 1 mM): 0%

arsenomolybdate
inhibition of xanthan depolymerase activity (xanthan depolymerase [2]; concentrations of Table VI): inhibited strongly
% Inhibition (xanthan depolymerase [2]; inhibitor 4%): 100%

O=S([O-])S(=O)[O-].[Na+].[Na+] [Na2 S2 O4, sodium dithionite]
inhibition of xanthan depolymerase activity (xanthan depolymerase [2]; 0.2%): not inhibited
inhibition of xanthan depolymerase activity (xanthan depolymerase [2]; 100 ppm): not inhibited
Viscosity (cps after days incubation) Aerobic (culture B-15992 [1]; 75 ppm, aerobic, xanthan broth about 300 cps at start): 1.0 cps
Viscosity (cps after days incubation) Anaerobic (culture B-15992 [1]; 75 ppm, about 300 cps at start): 300 cps

c1ccc(-c2ccccn2)nc1 [α, α' bipyridyl]
% Inhibition (xanthan depolymerase [2]; inhibitor 1 mM): 30%

N#CC(Br)(Br)C(N)=O [dow Antimicrobial 7287, 2,2-dibromo-3-nitrilopropionamide]
inhibition of xanthan depolymerase activity (xanthan depolymerase [2]; 100 ppm): failed to inhibit

c1cnc2c(c1)ccc1cccnc12 [1,10-phenanthroline]
% Inhibition (xanthan depolymerase [2]; inhibitor 1 mM): 0%

O=C(O)c1cc[c]([Hg+])cc1.[OH-] [p-hydroxymercuribenzoate]
% Inhibition (xanthan depolymerase [2]; inhibitor 1 mM): 40%

NC(N)=S [thiourea]
% Inhibition (xanthan depolymerase [2]; inhibitor 1 mM): 20%

ClC(Cl)Cl [chloroform]
inhibition of xanthan depolymerase activity (xanthan depolymerase [2]): not inhibited

O=C(O)c1cc(SSc2ccc([N+](=O)[O-])c(C(=O)O)c2)ccc1[N+](=O)[O-] [5,5'-dithio-bis-2-n-nitrobenzoic acid]
% Inhibition (xanthan depolymerase [2]; inhibitor 1 mM): 0%

O=C(O)CC(O)(CC(=O)O)C(=O)O [citric acid]
inhibition of xanthan depolymerase activity (xanthan depolymerase [2]; 5.5 mM): not inhibited

[Cl-].[Na+] [NaCl]
growth of culture B-15992 (culture B-15992 [3]; 10% salt concentration): completely inhibited
growth of culture B-15992 (culture B-15992 [3]; salt concentration between 6-8%): somewhat slower
growth of culture B-15992 (culture B-15992 [3]; up to 5% salt (NaCl) concentration): not inhibited
inhibition of xanthan depolymerase activity (xanthan depolymerase [2]): not inhibited

c1c[nH]cn1 [imidazole]
% Inhibition (xanthan depolymerase [2]): 30%

[Na+].[O-]c1cc(Cl)c(Cl)cc1Cl [Dowicide B, sodium trichlorophenate]
inhibition of xanthan depolymerase activity (xanthan depolymerase [2]; 100 ppm): failed to inhibit

OC[C@H]1O[C@@H](O[C@H]2[C@H](O)[C@@H](O)C(O)O[C@@H]2CO)[C@H](O)[C@@H](O)[C@@H]1O (single isomer, unassigned) [D(+) cellobiose]
Enzyme Activity (μmoles reducing sugar/min) (xanthan depolymerase [4]): 0 μmoles reducing sugar/min

[Cl][Fe]([Cl])[Cl] [ferric chloride]
% Inhibition (xanthan depolymerase [2]): 100%
inhibition of xanthan depolymerase activity (xanthan depolymerase [2]): inhibited strongly

O=C(O)CN(CCN(CC(=O)O)CC(=O)O)CC(=O)O [EDTA]
% Inhibition (xanthan depolymerase [2]): 0%

ferrous sulfate
inhibition of xanthan depolymerase activity (xanthan depolymerase [2]; 5.5 mM): not inhibited

NC(CO)(CO)CO [Trizma]
inhibition of xanthan depolymerase activity (xanthan depolymerase [2]): not inhibited

NC(=O)CI [iodoacetamide]
% Inhibition (xanthan depolymerase [2]; inhibitor 1 mM): 0%

NNC(N)=S [thiosemicarbazide]
% Inhibition (xanthan depolymerase [2]; inhibitor 1 mM): 20%

On1ccccc1=S [sodium omadine]
inhibition of xanthan depolymerase activity (xanthan depolymerase [2]): failed to inhibit

OC[C@H]1O[C@H](O[C@H]2O[C@H](CO)[C@@H](O)[C@H](O)[C@H]2O)[C@H](O)[C@@H](O)[C@@H]1O [D(+) trehalose]
Enzyme Activity (μmoles reducing sugar/min) (xanthan depolymerase [4]): 0 μmoles reducing sugar/min

[Cl-].[K+] [KCl]
inhibition of xanthan depolymerase activity (xanthan depolymerase [2]; 1 mM): not inhibited

Clc1ccccc1 [chlorobenzene]
inhibition of xanthan depolymerase activity (xanthan depolymerase [2]; 100 ppm): not inhibited

N#CSCSC#N [MBT 3522, methylene bisthiocyanate]
inhibition of xanthan depolymerase activity (xanthan depolymerase [2]; 100 ppm): failed to inhibit

OCl [sodium hypochlorite]
inhibition of xanthan depolymerase activity (xanthan depolymerase [2]; 100 ppm): not inhibited

Triton X-100
inhibition of xanthan depolymerase activity (xanthan depolymerase [2]; 4%): not inhibited
Viscosity (cps after days incubation) Aerobic (culture B-15992 [1]; 500 ppm, aerobic): 90 cps
Viscosity (cps after days incubation) Anaerobic (culture B-15992 [1]; 500 ppm): 300 cps
